In brackets after ≈: the same amount, converted by molar mass.
Tests used:
S. pyogenes = experiment: microbe, parasite or virus in culture; settings: for bacteriostatic and bactericidal activity: S. pyogenes, in vitro; for MBC / MIC: Streptococcus pyogenes; for MBC: read-out: MBC (Minimum Bactericidal Concentration); for MIC: read-out: MIC (Minimum Inhibitory Concentration)
Procedure: (§1) Miller et al., Arch Dermatol 124:209-15, 1988; Wille and Kydonieus, Skin Pharmacol Appl Skin Physiol 16:176-87, 2003. To test the working hypothesis, a series of in vitro experiments were first performed in which the effect of each lipid was measured on the growth of S. pyogenes, S. aureus and E. coli.
(§2) Bacteria. S. aureus Xen8.1 (parental strain 8325-4), S. pyogenes Xen20 (derived from serotype M49, strain 591) and E. coli Xen14 (derived from EPEC WS2572) were obtained from Xenogen (Carnbury, N.J.)

S. aureus [1] = experiment: Minimum inhibitory and bactericidal concentration on S. aureus in vitro; type: cell-based, Staphylococcus aureus; settings: for bacteriostatic and bactericidal activity: in vitro
Procedure: as §1, §2

S. aureus [2] = experiment: S. aureus skin infection in wild-type (C57BL/6) mice, luminescence and wound size; type: in vivo, mouse
Procedure: To investigate the physiological relevance of this antimicrobial activity, wild-type mice were inoculated with S. aureus and treated the infected animals by repeated (every two days) subcutaneous injections of palmitoleate (100 μl of a 100 μM solution in DMSO), or DMSO alone at the site of infection. The results of this experiment are illustrated in FIGS. 6A and B. For both groups of mice (n=6 animals), luminescence is expressed as a percentage of the initial inoculum, determined 24 hours after infection. […] As a consequence of improved S. aureus elimination, the diameter of the ulcerative wound (measured at day 9) in lipid-treated animals is one fourth that observed in controls (FIG. 6C).
A. Palmitoleate injection accelerates bacterial clearance in wild-type mice. Luminescence (expressed as a percentage of the initial inoculum) was measured in control (C57BL/6) mice inoculated with S. aureus (at day 0) and treated by vehicle (DMSO) or palmitoleate injections every two days (arrows). […] Histogram showing the size of the lesion measured at day 9 after the infection in control (B6) mice treated with DMSO or palmitoleate. ** indicates P value <0.01. […] F. Size of the lesion (determined at day 12) in infected flk mutants treated with DMSO or palmitoleate. * indicates P value <0.05. […]

S. aureus [3] = experiment: S. aureus skin infection in flake (flk/flk) mutant mice; type: in vivo, mouse; settings: flake mutants; 100 μl of 100 μM every two days
Procedure: However, complete rescue of the phenotype was not achieved by this pharmacological approach.
A. Palmitoleate injection accelerates bacterial clearance in wild-type mice. Luminescence (expressed as a percentage of the initial inoculum) was measured in control (C57BL/6) mice inoculated with S. aureus (at day 0) and treated by vehicle (DMSO) or palmitoleate injections every two days (arrows). B. Picture of control (C57BL/6) mice 9 days after S. aureus infection treated by DMSO (top) or palmitoleate (bottom) injections. C. Histogram showing the size of the lesion measured at day 9 after the infection in control (B6) mice treated with DMSO or palmitoleate. ** indicates P value <0.01. D. Palmitoleate treatment in S. aureus-infected flake mice. The protocol is similar as in A, except that 100 μl injections of a 75 mM solution of palmitoleate were performed. E. Pictures of infected flake mice at day 12 after DMSO (top) or palmitoleate (bottom) treatment. F. Size of the lesion (determined at day 12) in infected flk mutants treated with DMSO or palmitoleate. * indicates P value <0.05.
Skin infection. […] Luminescence was monitored daily with a CCD camera (5 min exposure of the animals) and quantification was done with the IVIS program from Xenogen.

[4] = tested on: Scd1 expression in peritoneal macrophages; experiment: Scd1 expression by RT-PCR in stimulated peritoneal macrophages; type: cell-based; settings: wild-type mouse peritoneal macrophages, within 18 hours after stimulation
Source text: A. SignalScan analysis of the Scd1 promoter. NF-κB and ISRE (interferon-stimulated regulatory element) are shown. B. RT-PCR detection of Scd1 and β-actin transcripts in skin biopsies of non-infected controls (C57BL/6, lane 1) and Tlr2−/− (lane 4) animals or after infection by S. aureus (lanes 2 and 5) or E. coli (lane 3). PCR products after 30 and 40 cycles are shown. M, size standard. C. RT-PCR detection of Scd1 and β-actin transcripts in controls (0) and MALP-induced peritoneal macrophages isolated from wild-type mice after 2, 4, 8 and 18 h. D. Quantification of the Scd1/β-actin ratio.
Macrophages, which represent an ideal system in which to study TLR signaling, also express the Scd1 gene, as reported recently. Uryu et al., Biochem Biophys Res Commun 303:302-5, 2003. To determine whether isolated macrophages are capable of upregulating Scd1 and to determine the kinetics of the response, peritoneal macrophages isolated from wild-type mice were stimulated with, synthetic macrophage-activating lipopeptide (MALP-2, EMC microcollections GmbH, Germany), a known TLR2 agonist. Takeuchi et al., J Immunol 164:554-7, 2000. […]
Semi-quantitative RT-PCR. […] Hoebe et al., J Endotoxin Res 9:250-5, 2003. hSCD1 and hFADS2 expression SZ95 sebocytes was measured by semi-quantitative RT-PCR using the following oligonucleotides: […]

SZ95 sebocytes = experiment: SZ95 human sebocytes: IL-6/IL-8 ELISA and SCD1/FADS2 RT-PCR; type: cell-based; settings: SZ95 cells
Source text: To corroborate potential relevance of inducible Scd1 expression in human skin defense against Gram-positive pathogens, the effect of MALP-2 was investigated on the immortalized human sebocyte cell line SZ95. Zouboulis et al., J. Invest Dermatol. 113:1011-1020, 1999. […] These observations were extended by monitoring the expression of the fatty acid desaturase2 (FADS2) gene. FADS2 encodes a protein with enzymatic properties similar to those of SCD1 and was recently shown to be deficient in a patient affected by a severe skin condition manifested by cheilosis, a hyperkeratotic rash over the arms and legs and perineal dermatitis. Williard et al., J. Lipid Res. 42:501-508, 2001.
A. IL-6 production is induced in SZ95 cells after MALP-2 treatment (50 ng/ml). […] B. Quantification of IL-8 in the same conditions as in A. C. RT-PCR detection of SCD1 and FADS2 expression 4 and 18 hours after LPS and MALP-2 stimulation. GAPDH expression was used as control. D. Quantification of the SCD1 and FADS2 signals measured in two independent experiments (+/− s.e.m) after normalization with the GAPDH signal.
Cell culture. SZ95 sebocytes were maintained in HSG-Med (Sebomed, Berlin, Germany) supplemented with 10% heat inactivated FCS, 5 ng/ml human epidermal growth factor, 1 mM CaCl2, 10^−5 M palmitic acid, 50 μg/ml gentamicin for 2, 4, 8 and 18 hours with/without 50 ng/ml MALP-2 or 100 ng/ml LPS and the supernatants were collected for IL6 and IL8 evaluation by ELISA. RNA was isolated from the 4- and 18-hour samples by the RNeasy Midi kit (Qiagen, Hilden, Germany) and purified by the RNase-Free DNase set (Qiagen) for RT-PCR.
Semi-quantitative RT-PCR. Wild-type and Tlr2^−/− mutant mice were depilated and infected by subcutaneous injection of S. aureus or E. coli (5×10^5 […]). After 24 h, the skin of the infected area was dissected and total RNA was extracted by the Trizol (Gibco) method. […] Hoebe et al., J Endotoxin Res 9:250-5, 2003. hSCD1 and hFADS2 expression SZ95 sebocytes was measured by semi-quantitative RT-PCR using the following oligonucleotides: […]

[5] = Staphylococcus aureus, average of 3 experiments

Row | Compound | bacteriostatic and bactericidal activity (S. pyogenes) | MBC (S. pyogenes) [µM] | MIC (S. pyogenes) [µM] | MBC (S. aureus [1]; [5]) [µM] | MIC (S. aureus [1]; [5]) [µM] | bacteriostatic and bactericidal activity (S. aureus [1]) | reduction of luminescence compared to vehicle-treated mice (S. aureus [2]; 9 days after S. aureus inoculation, s.c. 100 μl of 100 μM in DMSO every two days) [%] | diameter of the ulcerative wound relative to controls (S. aureus [2]; measured at day 9, s.c. 100 μl of 100 μM every two days) | bacterial growth (S. aureus [3]) | increase of Scd1 expression [4] [fold] | SCD1 transcription (SZ95 sebocytes; 4 hours after stimulation) | FADS2 expression (SZ95 sebocytes; 18 hours after stimulation) | IL-6 and IL-8 production (SZ95 sebocytes; MALP-2 50 ng/ml, LPS 100 ng/ml)
1 | CCCCCC/C=C\CCCCCCCC(=O)O [Palmitoleate, palmitoleic acid] | strong bacteriostatic and bactericidal activity | 10 (≈ 2.54 µg/mL) | 10 (≈ 2.54 µg/mL) | 50 (≈ 12.7 µg/mL) | 36.6 (≈ 9.31 µg/mL) | strong bacteriostatic and bactericidal activity | 90 | one fourth | marked reduction of bacterial growth between days 1 and 4 |  |  |  | 
2 | CCCCCCCC/C=C\CCCCCCCC(=O)O [Oleate, oleic acid] | strong bacteriostatic and bactericidal activity | 13.3 (≈ 3.76 µg/mL) | 8.3 (≈ 2.34 µg/mL) |  | > 75 | strong bacteriostatic and bactericidal activity |  |  |  |  |  |  | 
3 | MALP-2 |  |  |  |  |  |  |  |  |  | 4 | up-regulated | slightly but specifically induced | increased IL-6 and IL-8 production
